Key:
[1] = tested on: Escherichia coli; assay: Kcat/Km ratio of Klebsiella pneumoniae Beta-lactamase TEM-26 relative to Cephaloridine
[2] = biological target: Beta-lactamase TEM (Escherichia coli) (UniProt P62593); assay: Activity of Escherichia coli TEM-1 relative to Cephaloridine
[3] = biological target: Beta-lactamase (Pseudomonas aeruginosa (strain ATCC 15692 / PAO1 / 1C / PRS 101 / LMG12228)) (UniProt P24735); assay: Kcat/Km ratio of Pseudomonas aeruginosa AmpC relative to Cephaloridine
[4] = tested on: Klebsiella oxytoca; assay: Kcat/Km ratio of Klebsiella oxytoca Beta-lactamase K1
[5] = biological target: Carbapenem-hydrolyzing beta-lactamase KPC (Klebsiella pneumoniae) (UniProt Q9F663); assay: Kcat/Km ratio of Klebsiella pneumoniae KPC-2 relative to Cephaloridine
[6] = tested on: Escherichia coli; assay: Kcat/Km ratio of Klebsiella pneumoniae Beta-lactamase TEM-26
[7] = biological target: Beta-lactamase (Escherichia coli) (UniProt Q53TY8); assay: Activity of Escherichia coli CMY-2 relative to Cephaloridine
[8] = tested on: Klebsiella oxytoca; assay: Activity of Klebsiella oxytoca Beta-lactamase K1 relative to Cephaloridine
[9] = biological target: Beta-lactamase OXA-23 (Acinetobacter baumannii) (UniProt Q9L4P2); assay: Kcat/Km ratio of Acinetobacter baumannii OXA-23 relative to Cephaloridine
[10] = biological target: Beta-lactamase OXA-10 (Pseudomonas aeruginosa) (UniProt P14489); assay: Activity of Pseudomonas aeruginosa OXA-10 relative to Cephaloridine
[11] = biological target: Beta-lactamase CTX-M (Escherichia coli) (UniProt Q9EXV5); assay: Kcat/Km ratio of Escherichia coli CTX-M-15 relative to Cephaloridine
[12] = biological target: Beta-lactamase (Enterobacter cloacae) (UniProt P05364); assay: Activity of Enterobacter cloacae AmpC relative to Cephaloridine
[13] = biological target: T1, Beta-lactamase SHV-1 (Klebsiella pneumoniae) (UniProt P0AD64); assay: Activity of Klebsiella pneumoniae SHV-1 relative to Cephaloridine
T1 sequence (whole entry): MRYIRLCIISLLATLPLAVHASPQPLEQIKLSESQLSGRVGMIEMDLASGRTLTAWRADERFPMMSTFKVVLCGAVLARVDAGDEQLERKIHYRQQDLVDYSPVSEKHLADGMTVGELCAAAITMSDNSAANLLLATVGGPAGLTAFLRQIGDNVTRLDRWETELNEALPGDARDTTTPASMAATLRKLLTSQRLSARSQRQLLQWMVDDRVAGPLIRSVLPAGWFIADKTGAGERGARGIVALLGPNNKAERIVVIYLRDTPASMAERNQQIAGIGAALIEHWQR

[14] = tested on: Escherichia coli; assay: Activity of Klebsiella pneumoniae Beta-lactamase TEM-26 relative to Cephaloridine
[15] = biological target: T1, Beta-lactamase SHV-1 (Klebsiella pneumoniae); assay: Kcat/Km ratio of Klebsiella pneumoniae SHV-1 relative to Cephaloridine
[16] = biological target: T2, Beta-lactamase IMP-1 (Pseudomonas aeruginosa) (UniProt Q8G9Q0); assay: Activity of Pseudomonas aeruginosa IMP-1 relative to Cephaloridine
T2 sequence (whole entry): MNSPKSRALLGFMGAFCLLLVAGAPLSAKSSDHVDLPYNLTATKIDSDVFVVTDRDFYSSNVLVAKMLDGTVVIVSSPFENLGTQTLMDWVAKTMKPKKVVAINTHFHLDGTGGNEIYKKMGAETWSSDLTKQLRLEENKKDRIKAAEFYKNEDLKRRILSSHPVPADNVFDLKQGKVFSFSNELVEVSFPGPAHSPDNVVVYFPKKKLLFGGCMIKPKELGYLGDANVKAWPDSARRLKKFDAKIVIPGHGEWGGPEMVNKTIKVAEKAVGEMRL

[17] = biological target: T2, Beta-lactamase IMP-1 (Pseudomonas aeruginosa); assay: Kcat/Km ratio of Pseudomonas aeruginosa IMP-1 relative to Cephaloridine
[18] = biological target: Beta-lactamase OXA-23 (Acinetobacter baumannii) (UniProt Q9L4P2); assay: Activity of Acinetobacter baumannii OXA-23 relative to Cephaloridine
[19] = biological target: T3, Carbapenem-hydrolyzing beta-lactamase SME-3 (Serratia marcescens) (UniProt Q6PRG8); assay: Kcat/Km ratio of Serratia marcescens SME-3 relative to Cephaloridine
T3 sequence (whole entry): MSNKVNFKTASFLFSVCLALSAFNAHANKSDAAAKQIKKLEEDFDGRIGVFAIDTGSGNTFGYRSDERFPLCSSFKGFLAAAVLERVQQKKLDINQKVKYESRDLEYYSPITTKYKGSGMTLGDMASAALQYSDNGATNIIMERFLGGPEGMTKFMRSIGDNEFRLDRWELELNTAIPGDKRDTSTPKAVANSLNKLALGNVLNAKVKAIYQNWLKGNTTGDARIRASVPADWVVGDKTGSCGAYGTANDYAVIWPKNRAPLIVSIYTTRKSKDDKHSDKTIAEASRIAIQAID

[20] = tested on: Klebsiella oxytoca; assay: Kcat/Km ratio of Klebsiella oxytoca Beta-lactamase K1 relative to Cephaloridine
[21] = tested on: Klebsiella oxytoca; assay: Activity of Klebsiella oxytoca Beta-lactamase K1
[22] = tested on: Klebsiella pneumoniae; assay: Activity of Klebsiella pneumoniae Beta-lactamase TEM-26
[23] = biological target: Beta-lactamase (Enterobacter cloacae) (UniProt P05364); assay: Kcat/Km ratio of Enterobacter cloacae AmpC relative to Cephaloridine
[24] = biological target: Beta-lactamase CTX-M (Escherichia coli) (UniProt Q9EXV5); assay: Activity of Escherichia coli CTX-M-15 relative to Cephaloridine
[25] = biological target: Beta-lactamase TEM (Escherichia coli) (UniProt P62593); assay: Kcat/Km ratio of Escherichia coli TEM-1 relative to Cephaloridine
[26] = biological target: Beta-lactamase (Pseudomonas aeruginosa (strain ATCC 15692 / PAO1 / 1C / PRS 101 / LMG12228)) (UniProt P24735); assay: Activity of Pseudomonas aeruginosa AmpC relative to Cephaloridine
[27] = biological target: Carbapenem-hydrolyzing beta-lactamase KPC (Klebsiella pneumoniae) (UniProt Q9F663); assay: Activity of Klebsiella pneumoniae KPC-2 relative to Cephaloridine
[28] = biological target: T3, Carbapenem-hydrolyzing beta-lactamase SME-3 (Serratia marcescens); assay: Activity of Serratia marcescens SME-3 relative to Cephaloridine
[29] = biological target: Beta-lactamase OXA-10 (Pseudomonas aeruginosa) (UniProt P14489); assay: Kcat/Km ratio of Pseudomonas aeruginosa OXA-10 relative to Cephaloridine
[30] = biological target: Beta-lactamase (Escherichia coli) (UniProt Q53TY8); assay: Kcat/Km ratio of Escherichia coli CMY-2 relative to Cephaloridine
[31] = biological target: Beta-lactamase VIM-2 (Pseudomonas aeruginosa) (UniProt Q9K2N0); assay: Activity of Pseudomonas aeruginosa VIM-2 relative to Cephaloridine
[32] = biological target: Beta-lactamase VIM-2 (Pseudomonas aeruginosa) (UniProt Q9K2N0); assay: Kcat/Km ratio of Pseudomonas aeruginosa VIM-2 relative to Cephaloridine
[33] = tested on: C[C@@H](O)[C@H]1C(=O)N2C(C(=O)O)=C(S[C@@H]3CN[C@H](CNS(N)(=O)=O)C3)[C@H](C)[C@H]12; assay: Kcat/Km ratio of Pseudomonas aeruginosa VIM-2
[34] = tested on: C[C@@H](O)[C@H]1C(=O)N2C(C(=O)O)=C(S[C@@H]3CN[C@H](CNS(N)(=O)=O)C3)[C@H](C)[C@H]12; assay: Activity of Pseudomonas aeruginosa VIM-2

C[C@@H](O)[C@H]1C(=O)N2C(C(=O)O)=C(SCCNC=N)C[C@H]12
Activity [1]: 0.03% | Activity [2]: 0.00097% | Activity [3]: < 7% | kcat/Km [4]: 1800 M⁻¹ s⁻¹ | Activity [5]: 45% | kcat/Km [6]: 170 M⁻¹ s⁻¹ | Activity [7]: 0.0044% | Activity [8]: 0.019% | Activity [9]: 14200% | Activity [10]: < 0.088% | Activity [11]: 0.029% | Activity [12]: 0.00048% | Activity [13]: 0.013% | Activity [14]: 0.0065% | Activity [15]: 0.092% | Activity [16]: 70% | Activity [17]: 45% | Activity [18]: 0.2% | Activity [19]: 83% | Activity [20]: 0.04% | Km [21]: 51 µM | kcat [21]: 0.091 s⁻¹ | Km [22]: 14 µM | kcat [22]: 0.0024 s⁻¹ | Activity [23]: 0.0066% | Activity [24]: 0.09% | Activity [25]: 0.072% | Activity [26]: < 0.031% | Activity [27]: 7.9% | Activity [28]: 31%

CC1(C)S[C@@H]2[C@H](NC(=O)Cc3ccccc3)C(=O)N2[C@H]1C(=O)O
Activity [1]: 2700% | Activity [3]: 1% | kcat/Km [4]: 2e+07 M⁻¹ s⁻¹ | Activity [5]: 260% | Activity [29]: 14000% | kcat/Km [6]: 1.5e+07 M⁻¹ s⁻¹ | Activity [7]: 3.1% | Activity [8]: 160% | Activity [9]: 12000% | Activity [10]: 540% | Activity [14]: 210% | Activity [16]: 520% | Activity [17]: 19% | Activity [18]: 120% | Activity [20]: 440% | Km [21]: 40 µM | kcat [21]: 800 s⁻¹ | Km [22]: 5 µM | kcat [22]: 76 s⁻¹ | Activity [26]: 46% | Activity [27]: 15% | Activity [30]: 420%

CC(C)(O/N=C(\C(=O)N[C@@H]1C(=O)N2C(C(=O)[O-])=C(C[n+]3ccccc3)CS[C@H]12)c1csc(N)n1)C(=O)O
Activity [1]: 130% | Activity [3]: < 0.48% | kcat/Km [4]: 93 M⁻¹ s⁻¹ | Activity [5]: 0.22% | kcat/Km [6]: 730000 M⁻¹ s⁻¹ | Activity [8]: 0.0027% | Activity [10]: < 0.059% | Activity [13]: 0.0024% | Activity [14]: 260% | Activity [15]: 0.00077% | Activity [16]: 14% | Activity [17]: 5.7% | Activity [18]: < 0.00093% | Activity [20]: 0.0021% | Km [21]: 140 µM | kcat [21]: 0.013 s⁻¹ | Km [22]: 130 µM | kcat [22]: 95 s⁻¹ | Activity [27]: 0.097% | Activity [30]: 0.033%

O=C(Cc1cccs1)N[C@@H]1C(=O)N2C(C(=O)O)=C(/C=C/c3ccc([N+](=O)[O-])cc3[N+](=O)[O-])CS[C@H]12
Activity [7]: 240% | Activity [26]: 160% | Activity [30]: 1800%

C[C@@H](O)[C@H]1C(=O)N2C(C(=O)O)=C(S[C@@H]3CN[C@H](CNS(N)(=O)=O)C3)[C@H](C)[C@H]12
Activity [1]: 0.0082% | Activity [2]: 2.1e-05% | Activity [3]: < 1.2% | kcat/Km [4]: 150 M⁻¹ s⁻¹ | Activity [31]: 2% | Activity [32]: 34% | Activity [5]: 45% | kcat/Km [6]: 46 M⁻¹ s⁻¹ | Activity [7]: 1e-05% | Activity [9]: 31% | Activity [10]: < 0.046% | Activity [11]: 0.0051% | Activity [12]: 1.7e-05% | Activity [13]: 0.00073% | Activity [14]: 0.001% | Activity [15]: 0.027% | Activity [16]: 41% | Activity [17]: 28% | Activity [18]: 0.044% | Activity [19]: 10% | Activity [20]: 0.0033% | Km [21]: 45 µM | kcat [21]: 0.0068 s⁻¹ | Km [22]: 8 µM | kcat [22]: 0.00037 s⁻¹ | Activity [23]: 0.00059% | Activity [24]: 0.00095% | Activity [25]: 0.0022% | Activity [26]: < 0.0063% | Activity [30]: 0.67% | Activity [28]: 0.21%

O=C(Cc1cccs1)N[C@@H]1C(=O)N2C(C(=O)[O-])=C(C[n+]3ccccc3)CS[C@H]12
kcat/Km [4]: 4.5e+06 M⁻¹ s⁻¹ | kcat/Km [6]: 560000 M⁻¹ s⁻¹ | Km [21]: 110 µM | kcat [21]: 490 s⁻¹ | Km [22]: 66 µM | kcat [22]: 37 s⁻¹

C[C@@H](O)[C@H]1C(=O)N2C(C(=O)O)=C(S[C@@H]3CN[C@H](C(=O)N(C)C)C3)[C@H](C)[C@H]12
Activity [1]: 0.0079% | Activity [2]: 2.3e-05% | Activity [3]: < 1.6% | kcat/Km [4]: 110 M⁻¹ s⁻¹ | Activity [5]: 37% | kcat/Km [6]: 44 M⁻¹ s⁻¹ | Activity [7]: 1.1e-05% | Activity [8]: 0.002% | Activity [9]: 14.9% | Activity [10]: < 0.031% | Activity [11]: 0.0078% | Activity [12]: 1.2e-05% | Activity [13]: 0.00041% | Activity [14]: 0.0011% | Activity [15]: 0.015% | Activity [16]: 9.6% | Activity [17]: 31% | Activity [18]: 0.029% | Activity [19]: 18% | Activity [20]: 0.0024% | Km [21]: 90 µM | kcat [21]: 0.0096 s⁻¹ | Km [22]: 8.8 µM | kcat [22]: 0.00039 s⁻¹ | Activity [23]: 0.00042% | Activity [24]: 0.0022% | Activity [25]: 0.00083% | Activity [26]: < 0.0063% | Activity [27]: 0.92% | Activity [30]: 0.058% | Activity [28]: 0.27%

Beta-lactamase VIM-2 (Pseudomonas aeruginosa) (from UniProt Q9K2N0)
kcat/Km [33]: 29000 M⁻¹ s⁻¹ | Km [34]: 83 µM | kcat [34]: 2.4 s⁻¹

From ChEMBL document CHEMBL1212772
